≈ marks a conversion by molar mass, not a printed value. Calls of active or inactive are those of the source. No cut-off for these calls is given here.
What was measured:
[1] = target: T1, DNA topoisomerase 1 (Homo sapiens) (UniProt P11387); assay: Inhibition of DNA topoisomerase 1
T1 sequence (whole entry): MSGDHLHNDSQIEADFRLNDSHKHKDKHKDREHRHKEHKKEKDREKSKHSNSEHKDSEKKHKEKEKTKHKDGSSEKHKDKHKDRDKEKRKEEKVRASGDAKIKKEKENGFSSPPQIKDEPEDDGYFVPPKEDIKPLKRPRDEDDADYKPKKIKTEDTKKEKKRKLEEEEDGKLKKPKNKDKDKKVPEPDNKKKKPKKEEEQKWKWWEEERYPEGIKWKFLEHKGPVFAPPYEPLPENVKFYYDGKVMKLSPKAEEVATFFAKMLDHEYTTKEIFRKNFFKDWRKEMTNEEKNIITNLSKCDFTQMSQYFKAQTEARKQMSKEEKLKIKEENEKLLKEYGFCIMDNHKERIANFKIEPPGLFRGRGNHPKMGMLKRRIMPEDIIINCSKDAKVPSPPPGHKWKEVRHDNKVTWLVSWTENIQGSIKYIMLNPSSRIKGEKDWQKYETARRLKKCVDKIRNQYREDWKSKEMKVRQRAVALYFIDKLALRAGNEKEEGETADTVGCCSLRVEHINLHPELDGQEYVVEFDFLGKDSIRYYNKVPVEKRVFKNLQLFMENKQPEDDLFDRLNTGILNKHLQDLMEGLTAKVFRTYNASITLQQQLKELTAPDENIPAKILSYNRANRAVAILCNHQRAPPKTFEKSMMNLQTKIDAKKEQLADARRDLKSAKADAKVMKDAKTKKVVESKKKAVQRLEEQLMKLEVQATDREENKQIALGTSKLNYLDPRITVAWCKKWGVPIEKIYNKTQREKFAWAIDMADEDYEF

[2] = target: DNA topoisomerase 2-alpha (Homo sapiens) (UniProt P11388); assay: Inhibition of DNA topoisomerase 2
DNA topoisomerase 2-alpha (Homo sapiens), sequence (P11388 whole entry): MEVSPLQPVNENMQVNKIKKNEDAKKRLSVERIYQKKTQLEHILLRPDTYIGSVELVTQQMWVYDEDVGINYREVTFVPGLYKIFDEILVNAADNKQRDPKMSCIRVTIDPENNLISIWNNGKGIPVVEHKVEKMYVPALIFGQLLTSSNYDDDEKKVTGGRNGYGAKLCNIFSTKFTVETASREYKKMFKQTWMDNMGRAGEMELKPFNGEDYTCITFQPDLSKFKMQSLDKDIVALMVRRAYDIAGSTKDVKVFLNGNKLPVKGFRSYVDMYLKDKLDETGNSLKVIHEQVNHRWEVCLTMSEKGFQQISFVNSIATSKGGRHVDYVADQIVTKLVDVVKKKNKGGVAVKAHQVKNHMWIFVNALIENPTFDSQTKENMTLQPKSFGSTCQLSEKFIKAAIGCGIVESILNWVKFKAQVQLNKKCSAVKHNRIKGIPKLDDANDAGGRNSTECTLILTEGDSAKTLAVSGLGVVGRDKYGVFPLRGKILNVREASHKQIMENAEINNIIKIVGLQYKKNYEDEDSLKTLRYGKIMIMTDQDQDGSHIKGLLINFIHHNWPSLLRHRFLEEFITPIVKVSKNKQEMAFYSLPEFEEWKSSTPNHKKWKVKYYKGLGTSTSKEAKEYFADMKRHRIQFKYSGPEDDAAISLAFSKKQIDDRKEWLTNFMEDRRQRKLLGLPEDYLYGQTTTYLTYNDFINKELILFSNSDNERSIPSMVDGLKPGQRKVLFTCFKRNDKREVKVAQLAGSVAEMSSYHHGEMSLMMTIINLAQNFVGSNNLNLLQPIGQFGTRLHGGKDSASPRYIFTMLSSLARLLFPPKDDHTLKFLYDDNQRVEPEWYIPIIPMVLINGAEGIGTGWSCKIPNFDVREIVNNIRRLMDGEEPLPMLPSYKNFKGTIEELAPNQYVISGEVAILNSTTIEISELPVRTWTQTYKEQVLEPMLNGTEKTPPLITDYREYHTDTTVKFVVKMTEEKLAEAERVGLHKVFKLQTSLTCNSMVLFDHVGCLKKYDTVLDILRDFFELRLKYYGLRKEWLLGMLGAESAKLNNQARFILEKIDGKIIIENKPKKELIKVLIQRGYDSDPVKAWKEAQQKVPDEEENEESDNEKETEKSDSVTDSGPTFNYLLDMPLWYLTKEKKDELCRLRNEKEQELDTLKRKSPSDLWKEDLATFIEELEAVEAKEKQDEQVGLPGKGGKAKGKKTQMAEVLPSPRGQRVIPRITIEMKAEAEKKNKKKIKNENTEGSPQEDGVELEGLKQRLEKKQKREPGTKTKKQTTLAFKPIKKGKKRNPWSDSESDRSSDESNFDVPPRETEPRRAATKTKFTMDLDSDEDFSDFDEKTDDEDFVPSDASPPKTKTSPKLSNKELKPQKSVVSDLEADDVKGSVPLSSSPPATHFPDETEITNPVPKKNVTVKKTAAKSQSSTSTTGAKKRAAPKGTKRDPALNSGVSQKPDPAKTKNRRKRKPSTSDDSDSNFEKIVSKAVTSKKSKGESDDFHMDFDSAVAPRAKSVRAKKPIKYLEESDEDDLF

KB = assay: Cytotoxicity against human KB cells; type: functional, cell-based
P388 [3] = assay: Cytotoxicity against mouse P388 cells at 100 ug/mL; type: functional, cell-based
Bos taurus [4] = species on record: Bos taurus; assay: Inhibition of calf thymus DNA topoisomerase 1 assessed as minimum efficient dose
P388 [5] = assay: Cytotoxicity against mouse P388 cells; type: functional, cell-based
Bos taurus [6] = species on record: Bos taurus; assay: Inhibition of calf thymus tubulin assembly

O=c1c(O)c(-c2cc(O)c(O)c(O)c2)oc2cc(O)cc(O)c12
Activity [1]: Active | Activity [2]: Active

COc1cc(O)c2c(=O)cc(-c3cc(OC)c(OC)c(OC)c3)oc2c1 [CORYMBOSIN]
IC50 (KB): 19.4 µg/mL (≈ 54.1 µM) | Activity (P388 [3]): inactive

COc1cc(O)c2c(=O)cc(-c3cc(O)c(OC)c(OC)c3)oc2c1 [LETHEDOCIN]
IC50 (KB): 16.4 µg/mL (≈ 47.6 µM) | Activity (P388 [3]): inactive

COc1cc(O)c2c(=O)cc(-c3ccc(O)cc3)oc2c1 [GENKWANIN]
IC50 (KB): 8.7 µg/mL (≈ 30.6 µM) | MED (Bos taurus [4]): > 10 µg/mL | IC50 (P388 [5]): 10 µg/mL (≈ 35.2 µM)

COc1ccc(-c2oc3cc(O)c(OC)c(O)c3c(=O)c2OC)cc1O [CENTAUREIDIN]
IC50 (KB): 0.04 µg/mL (≈ 0.111 µM)

CC[C@@]1(O)C(=O)OCc2c1cc1n(c2=O)Cc2cc3ccccc3nc2-1 [CAMPTOTHECIN]
IC50 (KB): 0.01 µg/mL (≈ 0.0287 µM) | MED (Bos taurus [4]): 0.03 µg/mL

COc1cc(O)c2c(=O)cc(-c3ccc(OC)c(OC)c3)oc2c1
IC50 (KB): 19.4 µg/mL (≈ 59.1 µM) | Activity (P388 [3]): inactive

O=c1c(O)c(-c2ccc(O)c(O)c2)oc2cc(O)cc(O)c12
Activity [1]: Active | Activity [2]: Active

COc1cccc2c1C(=O)c1c(O)c3c(c(O)c1C2=O)C[C@@](O)(C(=O)CO)C[C@@H]3O[C@H]1C[C@H](N)[C@H](O)[C@H](C)O1 [DOXORUBICIN]
IC50 (KB): 1.5 µg/mL (≈ 2.76 µM) | IC50 (P388 [5]): 0.005 µg/mL (≈ 0.0092 µM)

COc1cc(O)c2c(=O)cc(-c3ccc(O)c(OC)c3)oc2c1 [VELUTIN]
Activity (Bos taurus [6]): inactive | MED (Bos taurus [4]): 0.1 µg/mL | IC50 (P388 [5]): 10 µg/mL (≈ 31.8 µM)

O=c1c(O)c(-c2ccc(O)c(O)c2)oc2cc(O)ccc12
Activity [1]: Active | Activity [2]: Active

COc1cc(O)c2c(=O)cc(-c3cc(OC)c(O)c(OC)c3)oc2c1
IC50 (KB): 7.7 µg/mL (≈ 22.4 µM) | Activity (Bos taurus [6]): inactive | MED (Bos taurus [4]): 1 µg/mL | Activity (P388 [3]): inactive
